According to the supplement of paper PMC10307832:

Tests used:
Assay in all cases: relative viability (nuclei count vs DMSO), 5 days (fraction); higher = more cells survive
[1] = compound: CNC(=O)c1ccccc1Sc1ccc2c(/C=C/c3ccccn3)n[nH]c2c1 [Axitinib] + CS(=O)(=O)N1CCN(Cc2cc3nc(-c4cccc5[nH]ncc45)nc(N4CCOCC4)c3s2)CC1 [Pictilisib] (partner 1 µM)
Summary of the method: (§1)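 Relative viability is defined as nuclei in treated wells over nuclei in vehicle wells. Duplicate plates were run and medians reported. Lung cancer cell lines in 1536-well plates were dosed by pin tool one day after seeding, with one drug or with a fixed anchor-drug dose plus five library-drug doses (not always all listed) in √10 steps, and nuclei were counted after 5 days.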

[2] = compound: CC1=CC=C(C=C1)C(=O)CN2C3=C(CCCC3)SC2=N [Pifithrin_alpha] + O=C(c1cc(Cc2n[nH]c(=O)c3ccccc23)ccc1F)N1CCN(C(=O)C2CC2)CC1 [Olaparib] (partner 8 µM)
Summary of the method: as §1

[3] = compound: Nc1nc(Nc2ccc3c(c2)CC[C@@H](N2CCCC2)CC3)nn1-c1cc2c(nn1)-c1ccccc1CCC2 [Bemcentinib] + CC(=O)Nc1cccc(-n2c(=O)n(C3CC3)c(=O)c3c(Nc4ccc(I)cc4F)n(C)c(=O)c(C)c32)c1 [Trametinib] (partner 0.02 µM)
Summary of the method: as §1

[4] = compound: CNC(=O)c1ccccc1Sc1ccc2c(/C=C/c3ccccn3)n[nH]c2c1 [Axitinib] + Nc1nc2[nH]cc(CCc3ccc(C(=O)N[C@@H](CCC(=O)O)C(=O)O)cc3)c2c(=O)[nH]1 [Pemetrexed] (partner 0.2 µM)
Summary of the method: as §1

| Cell Line | relative viability ([1]; first compound 0.005 µM) | relative viability ([1]; first compound 0.01581 µM) | relative viability ([1]; first compound 0.05 µM) | relative viability ([1]; first compound 0.1581 µM) | relative viability ([1]; first compound 0.5 µM) | relative viability ([2]; first compound 1 µM) | relative viability ([2]; first compound 3.162 µM) | relative viability ([2]; first compound 10 µM) | relative viability ([2]; first compound 31.62 µM) | relative viability ([2]; first compound 100 µM) | relative viability ([3]; first compound 0.04 µM) | relative viability ([3]; first compound 0.1265 µM) | relative viability ([3]; first compound 0.4 µM) | relative viability ([3]; first compound 1.265 µM) | relative viability ([3]; first compound 4 µM) | relative viability ([4]; first compound 0.005 µM) | relative viability ([4]; first compound 0.01581 µM) | relative viability ([4]; first compound 0.05 µM) | relative viability ([4]; first compound 0.1581 µM) | relative viability ([4]; first compound 0.5 µM) |
| --- | --- | --- | --- | --- | --- | --- | --- | --- | --- | --- | --- | --- | --- | --- | --- | --- | --- | --- | --- | --- |
| NCI-H1299 | 0.765 | 0.997 | 0.75 | 0.856 | 1.1 | 0.964 | 1 | 0.985 | 0.514 | 0.794 | – | – | – | – | – | – | – | – | – | – |
| NCI-H1734 | 0.462 | 0.432 | 0.493 | 0.439 | 0.436 | 0.588 | 0.502 | 0.529 | 0.328 | 0.575 | 0.679 | 0.743 | 0.739 | 0.625 | 0.701 | 0.413 | 0.432 | 0.412 | 0.435 | 0.429 |
| NCI-H1793 | 0.258 | 0.253 | 0.326 | 0.307 | 0.256 | 1.01 | 0.757 | 0.798 | 0.365 | 0.649 | 0.442 | 0.436 | 0.421 | 0.442 | 0.365 | 1.04 | 0.568 | 1.01 | 0.821 | 0.791 |
| NCI-H522 | – | – | – | – | – | 0.594 | 0.604 | 0.618 | 0.516 | 0.564 | 0.75 | 0.742 | 0.754 | 0.771 | 0.788 | 1.22 | 1.14 | 1.07 | 1.07 | 0.944 |
| LU99A | 0.355 | 0.349 | 0.336 | 0.363 | 0.306 | 0.248 | 0.242 | 0.277 | – | 0.236 | 0.516 | 0.641 | 0.55 | 0.596 | 0.51 | 0.196 | 0.203 | 0.182 | 0.175 | 0.204 |
| NCI-H1437 | 0.437 | 0.399 | 0.459 | 0.418 | 0.402 | 0.681 | 0.604 | 0.521 | 0.383 | 0.277 | 0.539 | 0.683 | 0.486 | 0.455 | 0.644 | 0.321 | 0.325 | 0.324 | 0.336 | 0.324 |
| NCI-H460 | 0.403 | 0.443 | 0.333 | 0.323 | 0.327 | 0.456 | 0.343 | 0.257 | – | 0.21 | 0.137 | 0.185 | 0.147 | 0.158 | 0.259 | 0.0553 | 0.0645 | 0.0676 | 0.0593 | 0.0611 |
| NCI-H1395 | 0.612 | 0.559 | 0.634 | 0.528 | 0.684 | – | 0.443 | 0.442 | – | 0.432 | – | 1.12 | 1.02 | 1.2 | 1.11 | 0.962 | 0.761 | 0.832 | 0.683 | 0.736 |
| NCI-H1703 | 0.228 | 0.216 | 0.254 | 0.231 | 0.2 | 0.418 | 0.328 | 0.382 | 0.313 | 0.326 | – | – | – | – | – | – | – | – | – | – |
| NCI-H1648 | – | – | – | – | – | 1.1 | 0.741 | 0.963 | 0.619 | 0.682 | 0.636 | 0.455 | 0.477 | 0.481 | 0.408 | 0.726 | 0.764 | 0.702 | 0.958 | 0.758 |
| Calu-6 | 0.861 | 0.946 | 1 | 0.942 | 1.17 | 0.534 | 0.536 | 0.46 | – | 0.427 | – | – | – | – | – | – | – | – | – | – |
| EBC-1 | 0.492 | 0.485 | 0.459 | 0.41 | 0.567 | 0.621 | 0.552 | 0.348 | 0.298 | 0.363 | – | – | – | – | – | – | – | – | – | – |
| NCI-H727 | 0.486 | 0.426 | 0.485 | 0.397 | 0.492 | 0.71 | 0.843 | 0.68 | 0.583 | 0.597 | 0.39 | 0.381 | 0.385 | 0.424 | 0.414 | – | – | – | – | – |
| IA-LM | 0.442 | 0.307 | 0.331 | 0.396 | 0.4 | 0.758 | 0.699 | 0.332 | 0.192 | 0.271 | – | – | – | – | – | – | – | – | – | – |
| NCI-H2342 | – | – | – | – | – | 0.519 | 0.415 | 0.42 | 0.373 | 0.43 | 0.897 | 0.904 | 0.895 | 0.988 | 0.88 | 0.753 | 0.792 | 0.707 | 0.782 | 0.669 |
| ABC-1 | 0.716 | 0.773 | 0.812 | 0.658 | 0.834 | – | 0.774 | 0.557 | 0.405 | 0.477 | – | – | – | – | – | – | – | – | – | – |
| SW 900 | – | – | – | – | – | 0.646 | 0.57 | 0.56 | 0.378 | 0.487 | 0.56 | 0.947 | 0.927 | 0.953 | 0.933 | 0.479 | – | 0.469 | 0.505 | 0.479 |
| A549 | 0.482 | 0.587 | 0.48 | 0.461 | 0.601 | – | 0.473 | 0.338 | 0.175 | 0.276 | – | – | – | – | – | – | – | – | – | – |
